Test results: PubChem BioAssay AID248 (DTP/NCI, 2004)
Several values for one entry are separate records, joined by “and”; a condition that tells them apart may be missing. Equal values may be shown once. Inconclusive results and toxic doses are left out.

Test system: L1210 leukemia ip in BDF1 mice, survival T/C
Test: NCI In Vivo Anticancer Drug Screen. Data for tumor model L1210 Leukemia (intraperitoneal) in B6D2F1 (BDF1) mice
Conditions: endpoint: mean survival time, higher = longer survival
How it was run: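 Tumor cells were implanted, animals were treated, and survival was followed. The result divides the treated measurement by the vehicle-control measurement.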

[1] = dose: 100.0 mg/kg/injection, schedule: Q01DX009 (ip), vehicle: Klucel (hydroxypropylcellulose) (HPC)
[2] = dose: 200.0 mg/kg/injection, schedule: Q01DX009 (ip), vehicle: Klucel (hydroxypropylcellulose) (HPC)
[3] = dose: 50.0 mg/kg/injection, schedule: Q01DX009 (ip), vehicle: saline with Tween-80
[4] = dose: 100.0 mg/kg/injection, schedule: Q01DX009 (ip), vehicle: saline with Tween-80
[5] = dose: 200.0 mg/kg/injection, schedule: Q01DX009 (ip), vehicle: saline with Tween-80
[6] = dose: 100.0 mg/kg/injection, schedule: Q04DX003 (ip), vehicle: Klucel (hydroxypropylcellulose) (HPC)
[7] = dose: 200.0 mg/kg/injection, schedule: Q04DX003 (ip), vehicle: Klucel (hydroxypropylcellulose) (HPC)
[8] = dose: 400.0 mg/kg/injection, schedule: Q04DX003 (ip), vehicle: Klucel (hydroxypropylcellulose) (HPC)
[9] = dose: 100.0 mg/kg/injection, schedule: Q04DX003 (ip), vehicle: acetone
[10] = dose: 200.0 mg/kg/injection, schedule: Q04DX003 (ip), vehicle: acetone
[11] = dose: 400.0 mg/kg/injection, schedule: Q04DX003 (ip), vehicle: acetone
[12] = dose: 100.0 mg/kg/injection, schedule: Q01DX001 (ip), vehicle: Klucel (hydroxypropylcellulose) (HPC)
[13] = dose: 200.0 mg/kg/injection, schedule: Q01DX001 (ip), vehicle: Klucel (hydroxypropylcellulose) (HPC)
[14] = dose: 400.0 mg/kg/injection, schedule: Q01DX001 (ip), vehicle: Klucel (hydroxypropylcellulose) (HPC)
[15] = dose: 100.0 mg/kg/injection, schedule: Q01DX001 (ip), vehicle: saline with Tween-80
[16] = dose: 200.0 mg/kg/injection, schedule: Q01DX001 (ip), vehicle: saline with Tween-80
[17] = dose: 400.0 mg/kg/injection, schedule: Q01DX001 (ip), vehicle: saline with Tween-80

In the case of `S=c1[nH]ncn1-c1ccccc1`, the T/C [1] is reported as 92 % of control and the T/C [2] is reported as 93 % of control.
For `CCC([NH-])=O.CCC([NH-])=O.[Pt+2]`, the T/C (dose: 100.0 mg/kg/injection, schedule: Q01DX009 (ip), vehicle: water) was 107 % of control, the T/C (dose: 100.0 mg/kg/injection, schedule: Q04DX003 (ip), vehicle: water) was 101 % of control and the T/C (dose: 200.0 mg/kg/injection, schedule: Q01DX009 (ip), vehicle: water) was 106 % of control. The T/C (dose: 200.0 mg/kg/injection, schedule: Q04DX003 (ip), vehicle: water) was 108 % of control and the T/C (dose: 400.0 mg/kg/injection, schedule: Q04DX003 (ip), vehicle: water) was 110 % of control.
For `COC(=O)Cc1ccc2c(c1)OCO2`, the T/C (dose: 100.0 mg/kg/injection, schedule: Q01DX001 (ip), vehicle: saline) was 97 % of control, the T/C (dose: 200.0 mg/kg/injection, schedule: Q01DX001 (ip), vehicle: saline) was 101 % of control and the T/C (dose: 400.0 mg/kg/injection, schedule: Q01DX001 (ip), vehicle: saline) was 103 % of control.
In the case of `Cc1ccc(SC(=S)Sc2ccc(C)cc2)cc1`, the T/C [3] is reported as 91 % of control, the T/C [4] is reported as 91 % of control and the T/C [5] is reported as 87 % of control.
In the case of `CCn1cc(C(=O)O)c(=O)c2ccc(-c3ccncc3)cc21`, the T/C [1] is reported as 98 % of control, the T/C [6] is reported as 91 % of control and the T/C [2] is reported as 101 % of control. The T/C [7] was 91 % of control, the T/C (dose: 400.0 mg/kg/injection, schedule: Q01DX009 (ip), vehicle: Klucel (hydroxypropylcellulose) (HPC)) was 102 % of control and the T/C [8] was 89 % of control.
In the case of `CCOC(=O)C(N=Nc1nn[nH]n1)C(C)=O` (stereo not drawn), the T/C [9] is reported as 109 % of control, the T/C [10] is reported as 94 % of control and the T/C [11] is reported as 108 % of control.
In the case of `CCOC(=O)CCc1cc(C)[nH]c1C(=O)OCC`, the T/C [12] is reported as 93 % of control, the T/C [6] is reported as 101 % of control and the T/C [13] is reported as 93 % of control. For the same compound, the T/C [7] was 96 % of control, the T/C [14] was 101 % of control and the T/C [8] was 98 % of control.
In the case of `CC(=O)Nc1ccc2c(c1)C(=O)NC2=O`, the T/C [12] is reported as 93 % of control, the T/C [13] is reported as 90 % of control and the T/C [14] is reported as 90 % of control.
`O=C(OCC(OC(=O)c1ccccc1)C(OC(=O)c1ccccc1)C(OC(=O)c1ccccc1)C(OC(=O)c1ccccc1)c1cnn(-c2ccccc2)n1)c1ccccc1` (stereo not drawn) was tested, and the T/C [9] was 87 % of control, the T/C [10] was 100 % of control and the T/C [11] was 90 % of control.
`O=S(=O)(c1ccccc1)c1cccs1` was tested, and the T/C [3] was 101 % of control, the T/C [4] was 96 % of control and the T/C [5] was 105 % of control.
For `Cc1ccc2[nH]c3ccccc3c(=O)c2c1`, the T/C (dose: 75.0 mg/kg/injection, schedule: Q01DX001 (ip), vehicle: saline) was 93 % of control, the T/C (dose: 150.0 mg/kg/injection, schedule: Q01DX001 (ip), vehicle: saline) was 91 % of control and the T/C (dose: 300.0 mg/kg/injection, schedule: Q01DX001 (ip), vehicle: saline) was 90 % of control.
`Oc1ccccc1/C=N/C(O)C(Cl)(Cl)Cl` (stereo not drawn) was tested, and the T/C (dose: 100.0 mg/kg/injection, schedule: Q04DX002 (ip), vehicle: Klucel (hydroxypropylcellulose) (HPC)) was 96 % of control, the T/C (dose: 200.0 mg/kg/injection, schedule: Q04DX002 (ip), vehicle: Klucel (hydroxypropylcellulose) (HPC)) was 114 % of control and the T/C (dose: 400.0 mg/kg/injection, schedule: Q04DX002 (ip), vehicle: Klucel (hydroxypropylcellulose) (HPC)) was 107 % of control.
`c1cc[c]([Sb]([c]2ccccc2)[n]2ccnc2)cc1` was tested, and the T/C (dose: 5.0 mg/kg/injection, schedule: Q04DX002 (ip), vehicle: saline with Tween-80) was 97 % of control and the T/C (dose: 10.0 mg/kg/injection, schedule: Q04DX002 (ip), vehicle: saline with Tween-80) was 97 % of control.
With `O=C(NCCCl)NC1CCC2CCCCC2C1` (stereo not drawn) the T/C [12] was 100 % of control, the T/C [6] was 92 % of control and the T/C [13] was 102 % of control. The T/C [7] was 97 % of control, the T/C [14] was 92 % of control and the T/C [8] was 97 % of control.
With `O=C(Nc1ccc([N+](=O)[O-])cc1Cl)OCCCl` the T/C [15] was 94 % of control, the T/C [4] was 98 % of control and the T/C (dose: 100.0 mg/kg/injection, schedule: Q04DX002 (ip), vehicle: saline with Tween-80) was 97 % of control. For the same compound, the T/C (dose: 100.0 mg/kg/injection, schedule: Q04DX003 (ip), vehicle: saline with Tween-80) was 96 % of control, the T/C [16] was 98 % of control and the T/C [5] was 87 % of control and 89 % of control. For the same compound, the T/C (dose: 200.0 mg/kg/injection, schedule: Q04DX002 (ip), vehicle: saline with Tween-80) was 97 % of control, the T/C (dose: 200.0 mg/kg/injection, schedule: Q04DX003 (ip), vehicle: saline with Tween-80) was 86 % of control and the T/C [17] was 87 % of control. For the same compound, the T/C (dose: 400.0 mg/kg/injection, schedule: Q01DX009 (ip), vehicle: saline with Tween-80) was 91 % of control and the T/C (dose: 400.0 mg/kg/injection, schedule: Q04DX002 (ip), vehicle: saline with Tween-80) was 94 % of control.
With `CCCCCCCCCCCCCCCNC1=C(OC)C(=O)C(NCCCCCCCCCCCCCCC)=C(OC)C1=O` the T/C (dose: 100.0 mg/kg/injection, schedule: Q01DX001 (ip), vehicle: other) was 90 % of control, the T/C (dose: 200.0 mg/kg/injection, schedule: Q01DX001 (ip), vehicle: other) was 93 % of control and the T/C (dose: 400.0 mg/kg/injection, schedule: Q01DX001 (ip), vehicle: other) was 96 % of control.
In the case of `Cc1nn(O)ccc1=N`, the T/C (dose: 56.25 mg/kg/injection, schedule: Q04DX002 (ip), vehicle: saline) is reported as 104 % of control, the T/C (dose: 112.5 mg/kg/injection, schedule: Q04DX002 (ip), vehicle: saline) is reported as 96 % of control and the T/C (dose: 225.0 mg/kg/injection, schedule: Q04DX002 (ip), vehicle: saline) is reported as 101 % of control.
For `O=S(=O)(F)c1cc(Cl)c(O)cc1Cl`, the T/C [1] was 97 % of control and the T/C [2] was 101 % of control.
In the case of `Cc1ccc(C2=C(c3ccc(C)cc3)CS(=O)(=O)C2)cc1`, the T/C [15] is reported as 95 % of control, the T/C [16] is reported as 168 % of control and the T/C [17] is reported as 244 % of control.
